From patent US11802120B2, “Fused cyclic urea derivatives as CRHR2 antagonist” (RaQualia Pharma Inc., priority 2018, dated 2023)

The compounds below were run against T1, human CRHR2-alpha (Homo sapiens, UniProt Q13324) (assay: cAMP functional assay for human CRHR2 (LANCE Ultra cAMP, TR-FRET)). Settings: CHO-K1 cells expressing human CRHR2-alpha, agonist human urocortin2 at EC80, cAMP; read-out: IC50 against CRHR2.
T1 sequence (Q13324 1-411): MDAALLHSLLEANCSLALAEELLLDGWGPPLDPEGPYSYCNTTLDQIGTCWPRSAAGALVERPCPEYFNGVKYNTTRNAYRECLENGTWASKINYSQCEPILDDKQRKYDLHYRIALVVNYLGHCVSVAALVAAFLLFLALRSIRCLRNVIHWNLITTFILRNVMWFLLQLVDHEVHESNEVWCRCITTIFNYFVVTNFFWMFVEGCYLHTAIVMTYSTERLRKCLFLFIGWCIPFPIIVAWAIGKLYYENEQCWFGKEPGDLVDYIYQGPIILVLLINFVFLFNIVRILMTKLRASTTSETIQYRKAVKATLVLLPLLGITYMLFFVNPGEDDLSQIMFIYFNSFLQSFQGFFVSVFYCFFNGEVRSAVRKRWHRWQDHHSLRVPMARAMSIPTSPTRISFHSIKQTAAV
Assay type: cell-based
How it was run: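 IC50 values derive from percent inhibition of EC80 agonist-stimulated cAMP in CHO-K1 transfectants, with 0.5 mM IBMX present; the CRHR2 line was stimulated by human urocortin2 and the CRHR1 line by CRF.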

Row | IC50 [nM] | Structure (SMILES)
1 | < 300 | CCC(=O)Nc1ccc(-n2c(=O)n(C[C@H]3CC[C@H](NC(=O)c4cc(Cl)cnc4C)CC3)c3ccccc32)cn1 [Example 479, 5-chloro-2-methyl-N-((1r,4r)-4-((2-oxo-3-(6-propionamidopyridin-3-yl)-2,3-dihydro-1H-benzo[d]imidazol-1-yl)methyl)cyclohexyl)nicotinamide]
2 | < 300 | Cc1ncc(Cl)cc1C(=O)N[C@H]1CC[C@H](Cn2c(=O)n(-c3ccc(NC4COC4)nc3)c3ccccc32)CC1 [Example 147, 5-chloro-2-methyl-N-((1r,4r)-4-((3-(6-(oxetan-3-ylamino)pyridin-3-yl)-2-oxo-2,3-dihydro-1H-benzo[d]imidazol-1-yl)methyl)cyclo-hexyl)nicotinamide]
3 | < 300 | O=C(N[C@H]1CC[C@H](Cn2c(=O)n(-c3ccc4c(c3)nnn4CCO)c3ccccc32)CC1)c1cc(Cl)cnc1C(F)F [Example 385, 5-chloro-2-(difluoromethyl)-N-((1r,4r)-4-((3-(1-(2-hydroxyethyl)-1H-benzo[d][1,2,3]triazol-5-yl)-2-oxo-2,3-dihydro-1H-benzo[d]imidazol-1-yl)methyl)cyclohexyl)nicotinamide]
4 | < 300 | COc1ccc(-n2c(=O)n(C[C@H]3CC[C@H](NC(=O)c4cc(Cl)ccc4C)CC3)c3ccccc32)cn1 [Example 223, 5-chloro-N-((1r,4r)-4-((3-(6-methoxypyridin-3-yl)-2-oxo-2,3-dihydro-1H-benzo[d]imidazol-1-yl)methyl)cyclo-hexyl)-2-methylbenzamide]
5 | < 300 | CCn1c(=O)oc2cc(-n3c(=O)n(C[C@H]4CC[C@H](NC(=O)c5cc(Cl)cnc5C)CC4)c4ccccc43)cnc21 [Example 277, 5-chloro-N-((1r,4r)-4-((3-(3-ethyl-2-oxo-2,3-dihydro-oxazolo[4,5-b]pyridin-6-yl)-2-oxo-2,3-dihydro-1H-benzo [d]imidazol-1-yl)methyl)cyclohexyl)-2-methylnico-tinamide]
6 | < 300 | O=C(N[C@H]1CC[C@H](Cn2c(=O)n(-c3ccnc(N4CCNC4=O)c3)c3ccccc32)CC1)c1cc(Cl)cnc1C(F)F [Example 691, 5-chloro-2-(difluoromethyl)-N-((1r,4r)-4-((2-oxo-3-(2-(2-oxoimidazolidin-1-yl)pyridin-4-yl)-2,3-dihydro-1H-benzo [d]imidazol-1-yl)methyl)cyclo-hexyl)nicotinamide]
7 | < 300 | Cc1ncc(Cl)cc1C(=O)N[C@H]1CC[C@H](Cn2c(=O)n(-c3ccn4ccnc4c3)c3ccccc32)CC1 [Example 272, 5-chloro-N-((1r,4r)-4-((3-(imidazo[1,2-a]pyridin-7-yl)-2-oxo-2,3-dihydro-1H-benzo [d]imidazol-1-yl)methyl)cyclohexyl)-2-methyl-nicotinamide]
8 | < 300 | Cc1ncc(Cl)cc1C(=O)N[C@H]1CC[C@H](Cn2c(=O)n(-c3ccc(NCC(F)F)nc3)c3ccccc32)CC1 [Example 437, 5-chloro-N-((1r,4r)-4-((3-(6-((2,2-difluoroethyl)amino)pyridin-3-yl)-2-oxo-2,3-dihydro-1H-benzo[d]imidazol-1-yl)methyl)cyclohexyl)-2-methylnicotinamide]
9 | < 300 | Cc1ncc(Cl)cc1C(=O)N[C@H]1CC[C@H](Cn2c(=O)n(-c3ccc4c(c3)cc(C(N)=O)n4C)c3ccccc32)CC1 [Example 403, 5-(3-(((1r,4r)-4-(5-chloro-2-methylnicotinamido)cyclo-hexyl)methyl)-2-oxo-2,3-dihydro-1H-benzo[d]imidazol-1-yl)-1-methyl-1H-indole-2-carboxamide]
10 | < 300 | CNC(=O)c1ccc(-n2c(=O)n(C[C@H]3CC[C@H](NC(=O)c4cc(Cl)cnc4CC(F)F)CC3)c3ccccc32)cn1 [Example 349, 5-(3-(((1r,4r)-4-(5-chloro-2-(2,2-difluoroethyl)nicotina-mido)cyclohexyl)methyl)-2-oxo-2,3-dihydro-1H-benzo[d]imidazol-1-yl)-N-methyl-picolinamide]
11 | < 300 | O=C(N[C@H]1CC[C@H](Cn2c(=O)n(-c3ccc(N[C@H]4CCOC4)nc3)c3ccccc32)CC1)c1cc(Cl)cnc1C(F)(F)F [Example 299, 5-chloro-N-((1S,4r)-4-((2-oxo-3-(6-(((S)-tetrahydro-furan-3-yl)amino)pyridin-3-yl)-2,3-dihydro-1H-benzo [d]imidazol-1-yl)methyl)cyclohexyl)-2-(trifluoro-methyl)nicotinamide]
12 | < 300 | CNC(=O)c1ccc(-n2c(=O)n(C[C@H]3CC[C@H](NC(=O)c4cc(Cl)cnc4C(F)F)CC3)c3ccc(F)cc32)cn1 [Example 562, 5-(3-(((1r,4r)-4-(5-chloro-2-(difluororomethyl)nicotina-mido)cyclohexyl)methyl)-6-fluoro-2-oxo-2,3-dihydro-1H-benzo[d]imidazol-1-yl)-N-methylpicolinamide]
13 | < 300 | Cc1ccc(-n2c(=O)n(C[C@H]3CC[C@H](NC(=O)c4cc(Cl)cnc4C(F)(F)F)CC3)c3ccccc32)cn1 [Example 265, 5-chloro-N-((1r,4r)-4-((3-(6-methylpyridin-3-yl)-2-oxo-2,3-dihydro-1H-benzo [d]imidazol-1-yl)methyl)cyclohexyl)-2-(trifluoro-methyl)nicotinamide]
14 | < 300 | COc1ccc(-n2c(=O)n(C[C@H]3CC[C@H](NC(=O)c4cc(Cl)cnc4C)CC3)c3cccnc32)cc1 [Example 190, 5-chloro-N-((1r,4r)-4-((3-(4-methoxyphenyl)-2-oxo-2,3-dihydro-1H-imidazo [4,5-b]pyridin-1-yl)methyl)cyclohexyl)-2-methylnico-tinamide]
15 | < 300 | N#Cc1nccnc1-n1c(=O)n(C[C@H]2CC[C@H](NC(=O)c3cc(Cl)cnc3C(F)F)CC2)c2ccccc21 [Example 369, 5-chloro-N-((1r,4r)-4-((3-(3-cyanopyrazin-2-yl)-2-oxo-2,3-dihydro-1H-benzo[d]imidazol-1-yl)methyl)cyclohexyl)-2-(difluoromethyl)nicotinamide]
16 | < 300 | COc1ccccc1C(=O)Cn1c(=O)n(C[C@H]2CC[C@H](NC(=O)c3cc(Cl)cnc3C)CC2)c2ccccc21 [Example 10, 5-chloro-N-((1r,4r)-4-((3-(2-(2-methoxyphenyl)-2-oxoethyl)-2-oxo-2,3-dihydro-1H-benzo[d]imidazol-1-yl)methyl)cyclohexyl)-2-methylnicotinamide]
17 | < 300 | Cc1ncc(Cl)cc1C(=O)N[C@H]1CC[C@H](Cn2c(=O)n(-c3ccc4nn(C5COC5)nc4c3)c3ccccc32)CC1 [Example 340, 5-chloro-2-methyl-N-((1r,4r)-4-((3-(2-(oxetan-3-yl)-2H-benzo[d][1,2,3]triazol-5-yl)-2-oxo-2,3-dihydro-1H-benzo [d]imidazol-1-yl)methyl)cyclohexyl)nicotinamide]
18 | < 300 | Cc1ncc(Cl)cc1C(=O)N[C@H]1CC[C@H](Cn2c(=O)n(-c3ccc4c(c3)c(C)nn4CCO)c3ccccc32)CC1 [Example 230, 5-chloro-N-((1r,4r)-4-((3-(1-(2-hydroxyethyl)-3-methyl-1H-indazol-5-yl)-2-oxo-2,3-dihydro-1H-benzo[d]imidazol-1-yl)methyl)cyclohexyl)-2-methylnicotinamide]
19 | < 300 | COC1CCN(c2ccc(-n3c(=O)n(C[C@H]4CC[C@H](NC(=O)c5cc(Cl)cnc5C)CC4)c4ccccc43)cn2)CC1 [Example 126, 5-chloro-N-((1r,4r)-4-((3-(6-(4-methoxypiperidin-1-yl)pyridin-3-yl)-2-oxo-2,3-di-hydro-1H-benzo[d]imidazol-1-yl)methyl)cyclohexyl)-2-methylnicotinamide]
20 | < 300 | Cn1ccc(-c2cncc(-n3c(=O)n(C[C@H]4CC[C@H](NC(=O)c5cc(Cl)cnc5C(F)F)CC4)c4ccccc43)c2)n1 [Example 701, 5-chloro-2-(difluoromethyl)-N-((1r,4r)-4-((3-(5-(1-methyl-1H-pyrazol-3-yl)pyridin-3-yl)-2-oxo-2,3-dihydro-1H-benzo [d]imidazol-1-yl)methyl)cyclo-hexyl)nicotinamide]
21 | < 300 | COc1cncc(-n2c(=O)n(C[C@H]3CC[C@H](NC(=O)c4cc(Cl)cnc4C)CC3)c3ccccc32)c1 [Example 484, 5-chloro-N-((1r,4r)-4-((3-(5-methoxypyridin-3-yl)-2-oxo-2,3-dihydro-1H-benzo[d]imidazol-1-yl)methyl)cyclo-hexyl)-2-methylnicotinamide]
22 | < 300 | Cc1ncc(Cl)cc1C(=O)N[C@H]1CC[C@H](Cn2c(=O)n(-c3ccc4ncccc4c3)c3cccnc32)CC1 [Example 358, 5-chloro-2-methyl-N-((1r,4r)-4-((2-oxo-1-(quinolin-6-yl)-1H-imidazo[4,5-b]pyridin-3(2H)-yl)methyl)cyclohexyl) nicotinamide]
23 | < 300 | Cc1ncc(Cl)cc1C(=O)N[C@H]1CC[C@H](Cn2c(=O)n(-c3ccccc3Cl)c3ncccc32)CC1 [Example 234, 5-chloro-N-((1r,4r)-4-((3-(2-chlorophenyl)-2-oxo-2,3-dihydro-1H-imidazo[4,5-b]pyridin-1-yl)methyl)cyclo-hexyl)-2-methylnicotinamide]
24 | < 300 | CNC(=O)c1ccc(-n2c(=O)n(C[C@H]3CC[C@H](NC(=O)c4cc(Cl)cnc4C(F)F)CC3)c3cc(F)ccc32)cn1 [Example 530, 5-(3-(((1r,4r)-4-(5-chloro-2-(difluoromethyl)nicotinamido)cyclohexyl)methyl)-5-fluoro-2-oxo-2,3-dihydro-1H-benzo [d]imidazol-1-yl)-N-methylpicolinamide]
